In patent publication US10874103B2, “Antibacterial composition comprising an acetal or a long-chain alkyl hexitane ether” (TEREOS STARCH & SWEETENERS BELGIUM, priority 2014, dated 2020):
Like-named read-outs stand apart in the source and are kept apart here.

What was measured:
[1] = test system: E. faecalis (ATCC® 29212™); experiment: MIC, 96-well microplate microdilution (Example 4); type: cell-based; conditions: Mueller-Hinton medium, 18 h at 37° C.
Description: (§1) The bacteriostatic properties of the derivatives are evaluated by measuring their minimum inhibitory concentration (MIC) on the bacteria tested. Such a measurement is made using the 96-well microplate microdilution method according to the conditions defined below.
(§2) The minimum inhibitory concentrations (MIC) are tested on Gram-positive bacterial strains according to the recommendations of the “Clinical Laboratory Standards Institute” (Clinical-Laboratory-Standards-Institute, 6th ed. Approved standard M100-S17. CLSI, Wayne, Pa., 2007).
(§3) The Gram-positive bacteria studied are as follows: L. monocytogenes (CIP 103575), E. faecalis (ATCC® 29212™) and S. aureus (ATCC® 292213™).
(§4) The cultures studied, freshly isolated (after incubation on a blood agar at 37° C. for 18 h), are taken up in sterile water (10 mL) until a 0.5 McFarland (Mc) suspension i.e. 1 to 2×10^8 CFU (bacteria)/cm^3 is obtained. The bacterial suspension was then diluted to obtain a final concentration of 5×10^5 CFU/cm^3.
(§5) Each well contains an identical quantity of Mueller-Hinton medium (a rich medium for bacterial culture) and bacteria with final 5×10^5 CFU/cm^3.
(§6) The test compounds of interest are solubilized in 2.5% m of ethanol before being diluted to different concentrations two by two.
(§7) On the multiwell plate, a first series has been planned comprising the culture medium without the test compound of interest. It corresponds to the growth control (control well). These controls serve as reference for comparing bacterial growth with that of the subsequent wells comprising different concentrations of the test compound of interest. The second series of wells comprises the mother solution for the test compound of interest for a concentration in the wells of 4 mM. Each series of wells was diluted two by two until the last series for a final concentration of 0.003 mM. Each concentration is duplicated in the same plate. The plate is incubated for 18 h at 37° C. […] If there is antibacterial activity, the bacterial growth is inhibited, which means that no turbidity or bacterial residue is present.
(§8) Tests have been conducted on Gram-positive bacteria with sorbitan derivatives. […] After sterilization the solutions are diluted in water. The results obtained for antimicrobial tests on the 3 bacterial strains L. monocytogenes (CIP 103575), E. faecalis (ATCC® 29212™) and S. aureus (ATCC® 292213™) are summarized in Table 1.

[2] = test system: L. monocytogenes (CIP 103575); experiment: MIC, 96-well microplate microdilution (Example 4); type: cell-based; conditions: Mueller-Hinton medium, 18 h at 37° C.
Description: as §1, §2, §3, §4, §5, §6, §7, §8

[3] = test system: S. aureus (ATCC® 292213™); experiment: MIC, 96-well microplate microdilution (Example 4); type: cell-based; conditions: ATCC 292213; Mueller-Hinton medium, 18 h at 37° C.
Description: as §1, §2, §3, §4, §5, §6, §7, §8

[4] = Critical micelle concentration (surfactant properties, Example 6); type: physicochemical
From the text: The physical, chemical and antimicrobial properties for the best products synthesized have been tested. These analyses show the different surfactant profiles, and the minimum inhibitory concentrations (MIC) for each compound on Gram-positive bacteria. The best surfactant and antimicrobial results are compared in Table 3.

[5] = test system: L. monocytogenes (CIP 103575), E. faecalis (ATCC® 29212™) and S. aureus (ATCC® 292213™); experiment: MIC microdilution, statements for all three Gram-positive strains together; type: cell-based; conditions: listed as Sorbitan dodecyl ether
Description: as §1, §2, §3, §4, §5, §6
On the multiwell plate, a first series has been planned comprising the culture medium without the test compound of interest. […]

[6] = test system: Listeria: L. monocytogenes strains; experiment: MIC microdilution on wider panel (Example 8), Listeria strains; type: cell-based
Description: The cultures studied, freshly isolated (after incubation on a blood agar at 37° C. for 18 h), are taken up in sterile water (10 mL) until a 0.5 McFarland (Mc) suspension i.e. at 1 to 2×10^8 CFU (bacteria)/cm^3 is obtained. The bacterial suspension was then diluted to obtain a final concentration of 1×10^6 CFU/cm^3. Each well contains an identical quantity of Mueller-Hinton medium (a rich medium for bacterial culture) and bacteria with final 0.5×10^6 CFU/cm^3. The test compounds of interest are solubilized in ethanol or DMSO at 25 mg/mL before being diluted to different concentrations two by two. On the multiwell plate, a first series has been planned comprising the culture medium without the test compound of interest. It corresponds to the growth control (control well). These controls serve as reference for comparing bacterial growth with that of the subsequent wells comprising different concentrations of the test compound of interest. The second series of wells comprises the mother solution for the test compound of interest for a concentration in the wells of 256 mg (7 mM). Each series of wells was diluted two by two until the last series for a final concentration of 0.25 mg/L (0.0007 mM). Each concentration is duplicated in the same plate. The plate is incubated for 18 h at 37° C. […] If there is antibacterial activity, the bacterial growth is inhibited, which means that no turbidity or bacterial residue is present. The minimum inhibitory concentrations (MIC) are tested on Gram-positive bacterial strains according to the recommendations of the “Clinical Laboratory Standards Institute” (Clinical-Laboratory-Standards-Institute, 6th ed. Approved standard M100-S17. CLSI, Wayne, Pa., 2007). The clinical strains have been isolated in the Hospice de Lyon. Listeria: L. monocytogenes (CIP 103575), clinical strain isolated from hemoculture (015189074801, LM1), a strain isolated from cerebrospinal liquid (015170199001, LM2), clinical strains isolated from hemoculture (015181840701, LM3). The cultures studied, freshly isolated (after incubation on a blood agar at 37° C. for 18 h), are taken up in sterile water (10 mL) until a 0.5 McFarland (Mc) suspension i.e. at 10^8 CFU (bacteria)/cm^3 is obtained. The bacterial suspension was then diluted to obtain a final concentration of 10^6 CFU/cm^3.

Dodecyl-1,4-d-sorbitan [Example 2e]
Minimum inhibitory concentration (MIC) E. faecalis [1]: 120 µM | Minimum inhibitory concentration (MIC) L. monocytogenes [2]: 120 µM | Minimum inhibitory concentration (MIC) S. aureus [3]: 120 µM | CMC (critical micelle concentration) [4]: 0.091 mM | CMC (critical micelle concentration) ([4]; listed as Sorbitan dodecyl ether): 0.09 mM | MIC / inhibitory concentration on the bacterial strains studied [5]: 120 µM | Minimum inhibitory concentration (MIC) CIP 103575 ([6]; L. monocytogenes CIP 103575): 32 µg/mL | Minimum inhibitory concentration (MIC) LM3 ([6]; clinical strain from hemoculture 015181840701): 32 µg/mL | Minimum inhibitory concentration (MIC) LM1 ([6]; clinical strain from hemoculture 015189074801): 16 µg/mL | Minimum inhibitory concentration (MIC) LM2 ([6]; strain from cerebrospinal liquid 015170199001): 32 µg/mL
